Assay results: patent publication US20090318381A1, “Halogenated alkyl di-and trisaccharides, pharmaceutical formulations, diagnostic kits and methods of treatment” (priority 2006, published 2009)

How the values were obtained:
[1] = system: Adenovirus Infection of Bladder Epithelium; conditions: pretreatment agent; Ramesh et al., Molecular Therapy 2004; cited from earlier work
[2] = system: Listeria Monocytogenes; conditions: in conjunction with certain organic acids; J. Applied Bacteriol. 1996; cited from earlier work
[3] = system: Staphylococcus aureus; assay: Antimicrobial testing, time-kill log reduction against S. aureus; assay type: cell-based; conditions: for Concentration (CFU/mL): 5 ml of 1% Compound 3 solution + 20 ml PBS pH 7.2; for Log Reduction: log inoculum verification minus sample log recovery
Description: (§1) The preferred embodiment was tested for antimicrobial activity using the following procedure.
(§2) A 1% solution of Compound 3 was prepared in DPBS (Dulbecco's phosphate buffered saline). A 25 ml mixture of the 1% Compound 3 and PBS (phosphate buffered saline, pH 7.2 was prepared by mixing 5 ml of the 1% Compound 3 solution and 20 ml of the PBS.
(§3) A 10 ml aliquot of the above mixture was placed into each of two sterile test tubes. One test tube was inoculated with 0.1 ml of S. aureus and the other with 0.1 ml of P. aeruginosa, such that there was a final concentration of 10^6 colony-forming units (CFU)/0.1 mls.
(§4) A various time points, 1.0 ml of each inoculated test sample were removed, diluted 10× with 0.45% saline and plated on trypticase soy agar (TSA) plates.
(§5) Samples of PBS was treated in the same manner. At time points 5 mins and 60 mins, two 1 ml samples were taken and diluted 1 × and one spiked with a 0.1 ml aliquot of the S. aureus and the other spiked with 0.1 ml of the P aeruginosa.
(§6) The plates were incubated at 30-35° C. for not less than 24 hours. Concentration of CFU in the samples taken at each time point were enumerated by standard methods. The log reduction was calculated for each time period and organism. The log reduction was calculated using the formula: Log reduction=Log inoculums verification−sample log recovery.

[4] = system: Pseudomonas aeruginosa; assay: Antimicrobial testing, time-kill log reduction against P. aeruginosa; assay type: cell-based; conditions: for Concentration (CFU/mL): 5 ml of 1% Compound 3 solution + 20 ml PBS pH 7.2; for Log Reduction: log inoculum verification minus sample log recovery
Description: as §1, §2, §3, §4, §5, §6

[5] = antimicrobial if greater than 5 log reduction

Molecule	increasing the effectiveness of gene and oncolytic virus therapy [1]	anti-microbial against Listeria Monocytogenes [2]	Concentration (CFU/mL) ([3]; 5 minutes)	Log Reduction ([3]; 5 minutes)	Concentration (CFU/mL) ([3]; 15 minutes)	Log Reduction ([3]; 15 minutes)	Concentration (CFU/mL) ([3]; 30 minutes)	Log Reduction ([3]; 30 minutes)	Concentration (CFU/mL) ([3]; 60 minutes)	Log Reduction ([3]; 60 minutes)	antimicrobial effect [3, 5]	Concentration (CFU/mL) ([4]; 5 minutes)	Log Reduction ([4]; 5 minutes)	Concentration (CFU/mL) ([4]; 15 minutes)	Log Reduction ([4]; 15 minutes)	Concentration (CFU/mL) ([4]; 30 minutes)	Log Reduction ([4]; 30 minutes)	Concentration (CFU/mL) ([4]; 60 minutes)	antimicrobial effect [4, 5]
sucrose monolaurate	effective	effective anti-microbial																	
CCCCCCCCCCCCO[C@@H]1O[C@H](CO)[C@@H](O[C@H]2O[C@H](CO)[C@@H](O)[C@H](O)[C@H]2O)[C@H](O)[C@H]1O [dodecyl maltoside]	effective																		
CCCCCCCCCCCC(=O)OCC1O[C@H](O[C@@]2(CCl)O[C@H](CCl)C(O)C2O)C(O)C(O)[C@H]1Cl (stereo in doubt) [Compound 3, 1′,6′-Dichloro-1′,6′-dideoxy-β-D-fructofuranosyl-4-chloro-4-deoxy-6-O-monododecanoate-α-D-galactopyranoside]			6.9 × 10^5 CFU/mL	4	4.3 × 10^4 CFU/mL	5.2	1.41 × 10^4 CFU/mL	5.7	2.9 × 10^3 CFU/mL	6.3	has antimicrobial effect	1.53 × 10^6 CFU/mL	3.5	1.1 × 10^6 CFU/mL	3.7	1.21 × 10^6 CFU/mL	3.6	TNTC*	not
